{"source": "patent US11286236B2", "about": "“Compound, agent and composition for the suppression of cancer growth” (Vector Vitale IP LLC, priority 2018, dated 2022)", "system": "Mouse Bone Marrow Cells", "assay": "Cytotoxic/cytostatic effects on mouse bone marrow cells (MTT assay)", "format": "cell-based", "protocol": "In Vitro Assessment of Cytotoxic/Cytostatic Effects of Experimental Compound ^85Rbe-E2 on Mouse Bone Marrow Cells\nProliferative and metabolic activity of cells was determined by the colorimetric method.\nThe metabolic activity of the cells (i.e., the number of living cells) was assessed by MTT staining.\n24 hours after the last reagent, the cells were seeded at a concentration of 1×10^4 cells/well in wells of a 96-well plate in complete DMEM nutrient medium with 10% FBS and 40 μg/ml gentamicin. The cells were cultured in a humidified atmosphere at 5% CO2 and 37° C. for 24 hours. After 24 hours, various doses of experimental substances were added to the respective wells. The cells were incubated at 37° C. and 5% CO2 for an additional 72 hours.\nUpon completion of the incubation with the preparations, the proliferative and metabolic activity of the cells in the experiment was evaluated by the colorimetric method by staining MTT cells:\n10 μl of the MTT solution (5 mg/ml of the dye in phosphate-buffered saline) was added to each well of the plate; the plate was incubated in a CO2 incubator at 37° C. for 3 hours. After that, the medium was removed from the wells, and the formed tetraformazan crystals were dissolved in 100 μl of dimethylsulfoxide.\nWhen MTT was used, the results were evaluated using a multi-well spectrophotometer at an excitation wavelength of 540 nm. The percentage of viable cells was calculated by the formula: IR=(A540(experiment)/A540(control))×100%.", "note": "Where a name gives a salt, the structure may show the parent alone.", "data": [{"smiles": "Cc1ccc(S(=O)(=O)Nc2ccccc2NC(=O)c2ccccc2)cc1", "note": "[^85Rbe − E2, ^85Rb-enriched rubidium salt of N-benzoyl-N′-(4-toluenesulfonyl)-o-phenylenediamine]", "values": [{"measurement": "Metabolic activity of cells, %", "setting": "1.25 μg/ml", "result": "119.1 ± 0.2", "unit": "%"}, {"measurement": "Metabolic activity of cells, %", "setting": "2.5 μg/ml", "result": "97.4 ± 1.4", "unit": "%"}, {"measurement": "Metabolic activity of cells, %", "setting": "5 μg/ml", "result": "90.2 ± 3.3", "unit": "%"}, {"measurement": "Metabolic activity of cells, %", "setting": "10 μg/ml", "result": "45 ± 4.7", "unit": "%"}, {"measurement": "Metabolic activity of cells, %", "setting": "20 μg/ml", "result": "24.2 ± 0.8", "unit": "%"}, {"measurement": "Metabolic activity of cells, %", "setting": "38 μg/ml", "result": "19.1 ± 1.9", "unit": "%"}, {"measurement": "Metabolic activity of cells, %", "setting": "75 μg/ml", "result": "18.5 ± 0.4", "unit": "%"}, {"measurement": "Metabolic activity of cells, %", "setting": "150 μg/ml", "result": 0, "unit": "%"}]}]}
